Assay: GC-odor threshold concentration (gas chromatograph with sniff port, panel of trained evaluators)
Conditions: for Odor threshold concentration (relative): GC sniff port, panel of trained evaluators, identical conditions, relative values (Ic = 1)
Experimental: Definition: The odour threshold concentration is defined as the lowest concentration of the vapour of an odourant material in the air which can be detected by smell and can be measured by standard methods known in the art. According to standard procedures known to the person skilled in the art, threshold concentrations for volatile perfumery compounds are determined on a gas chromatograph equipped with a sniff port by a panel of trained evaluators. The lowest concentration smelled by each panelist is recorded as the individual threshold concentration expressed in ng (absolute amount of compound delivered at the sniff port).

SMILES | Odor threshold concentration (relative) | odor threshold concentration, times lower than citronellol (compared with citronellol) | odor threshold concentration, times lower than geraniol (compared with geraniol) | odor threshold concentration, times lower than compound Ib (compared with [(1S*,2R*)-1-methyl-2-[(S*)-5-methylhex-4-en-2-yl]cyclopropyl]methanol (Ib)) [times]
CC(C)=CCCC(C)CCO (stereo not shown) [Citronellol, 3,7-dimethyloct-6-enol, reference compound] | 185 | – | – | –
CC(C)=CC[C@H](C)[C@H]1C[C@]1(C)CO (relative stereo) [Compound Ib, [(1S*,2R*)-1-Methyl-2-[(S*)-5-methylhex-4-en-2-yl]cyclopropyl]methanol] | 100 | – | – | –
CC(C)=CCC(C)/C=C(\C)CO (stereo not shown) [Compound Ia, 2,4,7-Trimethylocta-2,6-dien-1-ol] | 70 | more than 2 times | more than 11 times | –
CC(C)=CC[C@@H](C)[C@H]1C[C@]1(C)CO (relative stereo) [Compound Ic, [(1S*,2R*)-1-Methyl-2-[(R*)-5-methylhex-4-en-2-yl]cyclopropyl]methanol] | 1 | – | – | 100

Source: patent publication US9120994B2, “Terpene alcohols for use in fragrance compositions and perfumed products” (Givaudan S.A., priority 2011, dated 2015)
